We go through one compound from the NIST ThermoML archive (doi:10.1016/j.jct.2015.05.019).

Series [1] in a line: Molar enthalpy of transition or fusion. Conditions: Crystal; DSC.
For series [2] the following is noted: Crystal; DTA.

The structures appear in SMILES notation. ± gives the expanded uncertainty stated by the source.

Turning to `O=c1c(-c2ccc(O)cc2)coc2cc(O[C@@H]3O[C@H](CO)[C@@H](O)[C@H](O)[C@H]3O)cc(O)c12` [genistin], the “Molar enthalpy of transition or fusion” value in series [1] worked out at 15.7 ± 3.11 kcal/mol. Further, the Normal melting temperature in series [2] worked out at 274.32 ± 0.5 °C.
